# Tests used:
# [1] = test system: U87MG pLVX-IDH2 R140Q-neo cells; assay: U87MG pLVX-IDH2 R140Q-neo cell based assay, 2-HG in media by LC-MS at 48 hours; conditions: for IC50: Homo sapiens, U-87 MG
# Protocol: U87MG pLVX-IDH2 R140Q-neo cells are grown in T125 flasks in DMEM containing 10% FBS, 1× penicillin/streptomycin and 500 μg/mL G418. They are harvested by trypsin and seeded into 96 well white bottom plates at a density of 5000 cell/well in 100 μl/well in DMEM with 10% FBS. No cells are plated in columns 1 and 12. Cells are incubated overnight at 37° C. in 5% CO2. The next day compounds are made up at 2× concentration and 100 ul are added to each cell well. The final concentration of DMSO is 0.2% and the DMSO control wells are plated in row G. The plates are then placed in the incubator for 48 hours. At 48 hours, 100 ul of media is removed from each well and analyzed by LC-MS for 2-HG concentrations. The cell plate is placed back in the incubator for another 24 hours. At 72 hours post compound addition, 10 mL/plate of Promega Cell Titer Glo reagent is thawed and mixed. The cell plate is removed from the incubator and allowed to equilibrate to room temperature. Then 100 ul of reagent is added to each well of media. The cell plate is then placed on an orbital shaker for 10 minutes and then allowed to sit at room temperature for 20 minutes. The plate is then read for luminescence with an integration time of 500 ms to determine compound effects on growth inhibition.
# IDH2 R140Q = molecular target: T1, IDH2 R140Q (Homo sapiens, UniProt P48735, R140Q); assay: IDH2 R140Q enzymatic assay (cofactor depletion, similar format); format: biochemical; conditions: for IC50: read-out: Enz R140Q
# T1 sequence (P48735 40-452 R140Q): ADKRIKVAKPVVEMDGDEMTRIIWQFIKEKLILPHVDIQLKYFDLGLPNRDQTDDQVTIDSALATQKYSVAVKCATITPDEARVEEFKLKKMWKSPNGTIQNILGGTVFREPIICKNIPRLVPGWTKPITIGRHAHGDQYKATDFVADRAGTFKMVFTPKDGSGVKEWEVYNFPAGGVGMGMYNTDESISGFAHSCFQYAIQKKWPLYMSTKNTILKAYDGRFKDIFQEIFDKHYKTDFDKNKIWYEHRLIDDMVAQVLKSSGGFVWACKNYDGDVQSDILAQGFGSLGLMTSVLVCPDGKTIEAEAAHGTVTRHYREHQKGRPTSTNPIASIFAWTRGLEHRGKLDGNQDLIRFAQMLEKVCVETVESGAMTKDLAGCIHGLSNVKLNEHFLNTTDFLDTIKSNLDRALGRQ
# Protocol: [The source words this procedure for another variant and says it was used here with some conditions changed.] Compounds are assayed for IDH2 R172K inhibitory activity through a cofactor depletion assay. […] The reaction is terminated by the addition of a second enzyme, diaphorase, and a corresponding substrate, resazurin. Diaphorase reduces resazurin to the highly fluorescent resorufin with the concomitant oxidation of NADPH to NADP, both halting the IDH2 reaction by depleting the available cofactor pool and facilitating quantitation of the amount of cofactor remaining after a specific time period through quantitative production of an easily detected fluorophore.
# The test compound is then incubated for one hour at room temperature with the enzyme; before starting the IDH2 reaction with the addition of 10 μl of substrate mix containing 50 μM NADPH and 6.3 mM α-KG in the buffer described above. After a further one hour of incubation at room temperature, the reaction is halted and the remaining NADPH measured through conversion of resazurin to resorufin by the addition of 25 μl Stop Mix (36 μg/ml diaphorase enzyme and 60 μM resazurin; in buffer).
IC50 [1] [nM],IC50 (IDH2 R140Q) [nM],Enz R140Q (IDH2 R140Q),Compound,Cell R140Q [1]
100 to 1000,100 to 1000,,"N#CC1(Nc2nc(Nc3ccncc3)nc(-c3ccccc3)n2)CCC1 [Compound 284, 1-(4-phenyl-6-(pyridin-4-ylamino)-1,3,5-triazin-2-ylamino)cyclobutanecarbonitrile]",
< 100,< 100,,"Cc1cc(Nc2nc(NC(C)C)nc(-c3ccccc3)n2)ccn1 [Compound 288, N^2-isopropyl-N^4-(2-methylpyridin-4-yl)-6-phenyl-1,3,5-triazine-2,4-diamine]",
100 to 1000,< 100,,"CC(C)Nc1nc(Nc2ccc(Cl)nc2)nc(-c2ccccc2)n1 [Compound 289, N^2-(6-chloropyridin-3-yl)-N^4-isopropyl-6-phenyl-1,3,5-triazine-2,4-diamine]",
< 100,100 to 1000,,"CC(C)Nc1nc(Nc2ccccc2)nc(-c2cccc(N)n2)n1 [Compound 290, 6-(6-aminopyridin-2-yl)-N^2-isopropyl-N^4-phenyl-1,3,5-triazine-2,4-diamine]",
,,No Fit,"CCC(CO)Nc1nc(Nc2ccncc2)nc(-c2ccccc2)n1 (centres unmarked) [Compound 291, 2-(4-phenyl-6-(pyridin-4-ylamino)-1,3,5-triazin-2-ylamino)butan-1-ol]",No Fit
,,No Fit,"CC(C)Nc1nc(Nc2ccncc2F)nc(-c2ccccc2)n1 [Compound 292, N^2-(3-fluoropyridin-4-yl)-N^4-isopropyl-6-phenyl-1,3,5-triazine-2,4-diamine]",No Fit
< 100,< 100,,"CC(C)Nc1nc(Nc2ccnc(N(C)C)c2)nc(-c2ccccc2)n1 [Compound 293, N^2-(2-(dimethylamino)pyridin-4-yl)-N^4-isopropyl-6-phenyl-1,3,5-triazine-2,4-diamine]",
,,No Fit,"OCCNc1nc(Nc2ccncc2)nc(-c2ccccc2)n1 [Compound 294, 2-(4-phenyl-6-(pyridin-4-ylamino)-1,3,5-triazin-2-ylamino)ethanol]",No Fit
< 100,< 100,,"c1ccc(-c2nc(Nc3ccncc3)nc(N[C@@H]3C[C@@H]4CC[C@H]3C4)n2)cc1 [Compound 295, N^2-((1S,2R,4R)-bicyclo[2.2.1]heptan-2-yl)-6-phenyl-N^4-(pyridin-4-yl)-1,3,5-triazine-2,4-diamine]",
< 100,100 to 1000,,"c1ccc(Nc2nc(N[C@@H]3C[C@@H]4CC[C@H]3C4)nc(-c3ccccc3)n2)cc1 [Compound 296, N^2-((1S,2R,4R)-bicyclo[2.2.1]heptan-2-yl)-N^4,6-diphenyl-1,3,5-triazine-2,4-diamine]",
< 100,< 100,,"c1ccc(-c2nc(Nc3ccncc3)nc(NC3C4COCC43)n2)cc1 (centres unmarked) [Compound 297, N^2-(3-oxabicyclo[3.1.0]hexan-6-yl)-6-phenyl-N^4-(pyridin-4-yl)-1,3,5-triazine-2,4-diamine]",
< 100,< 100,,"CC(C)Nc1nc(Nc2ccnc(N3CCOCC3)c2)nc(-c2ccccc2)n1 [Compound 298, N^2-isopropyl-N^4-(2-morpholinopyridin-4-yl)-6-phenyl-1,3,5-triazine-2,4-diamine]",
100 to 1000,< 100,,"CC(C)Nc1nc(Nc2ccnc(N3CCC3)c2)nc(-c2ccccc2)n1 [Compound 299, N^2-(2-(azetidin-1-yl)pyridin-4-yl)-N^4-isopropyl-6-phenyl-1,3,5-triazine-2,4-diamine]",
100 to 1000,100 to 1000,,"c1ccc(-c2nc(NCC3COC3)nc(Nc3ccncc3)n2)cc1 [Compound 300, N^2-(oxetan-3-ylmethyl)-6-phenyl-N^4-(pyridin-4-yl)-1,3,5-triazine-2,4-diamine]",
< 100,100 to 1000,,"CC(C)Nc1cc(Nc2nc(NC(C)C)nc(-c3ccccc3)n2)ccn1 [Compound 301, N^2-isopropyl-N^4-(2-(isopropylamino)pyridin-4-yl)-6-phenyl-1,3,5-triazine-2,4-diamine]",
100 to 1000,< 100,,"CNc1cc(Nc2nc(NC(C)C)nc(-c3ccccc3)n2)ccn1 [Compound 302, N^2-isopropyl-N^4-(2-(methylamino)pyridin-4-yl)-6-phenyl-1,3,5-triazine-2,4-diamine]",

IC50 [1] [nM],IC50 (IDH2 R140Q) [nM],Enz R140Q (IDH2 R140Q),Compound,Cell R140Q [1]
,1000 to 10000,,"CNc1ccc(Nc2nc(NC(C)C)nc(-c3ccccc3)n2)cn1 [Compound 303, N^2-isopropyl-N^4-(6-(methylamino)pyridin-3-yl)-6-phenyl-1,3,5-triazine-2,4-diamine]",No Fit
,1000 to 10000,,"OC1CCCC(Nc2nc(Nc3ccncc3)nc(-c3ccccc3)n2)C1 (centres unmarked) [Compound 304, 3-(4-phenyl-6-(pyridin-4-ylamino)-1,3,5-triazin-2-ylamino)cyclohexanol]",No Fit
,> 10000,,"COC1CC(Nc2nc(Nc3ccncc3)nc(-c3ccccc3)n2)C1 (centres unmarked) [Compound 305, N^2-(3-methoxycyclobutyl)-6-phenyl-N^4-(pyridin-4-yl)-1,3,5-triazine-2,4-diamine]",No Fit
< 100,100 to 1000,,CS(=O)(=O)c1cccc(Nc2nc(NC3CCOCC3)nc(-c3ccccc3)n2)c1 [Compound 306],
100 to 1000,< 100,,"CC(C)Nc1nc(Nc2cnn(C)c2)nc(-c2ccccc2)n1 [Compound 308, N^2-isopropyl-N^4-(1-methyl-1H-pyrazol-4-yl)-6-phenyl-1,3,5-triazine-2,4-diamine]",
< 100,< 100,,"CC(C)Nc1nc(Nc2cnoc2)nc(-c2ccccc2)n1 [Compound 309, N^2-isopropyl-N^4-(isoxazol-4-yl)-6-phenyl-1,3,5-triazine-2,4-diamine]",
< 100,100 to 1000,,"Cc1cc(Nc2nc(NC(C)C)nc(-c3ccccc3)n2)cc(C)n1 [Compound 310, N^2-(2,6-dimethylpyridin-4-yl)-N^4-isopropyl-6-phenyl-1,3,5-triazine-2,4-diamine]",
100 to 1000,100 to 1000,,"CC(C)Nc1nc(Nc2ccc(OCC3CC3)nc2)nc(-c2ccccc2)n1 [Compound 311, N^2-(6-(cyclopropylmethoxy)pyridin-3-yl)-N^4-isopropyl-6-phenyl-1,3,5-triazine-2,4-diamine]",
1000 to 10000,100 to 1000,,"CC(C)Nc1nc(Nc2ccc(OC(C)C)nc2)nc(-c2ccccc2)n1 [Compound 312, N^2-(6-isopropoxypyridin-3-yl)-N^4-isopropyl-6-phenyl-1,3,5-triazine-2,4-diamine]",
< 100,< 100,,"CC(C)Nc1nc(Nc2cncs2)nc(-c2ccccc2)n1 [Compound 313, N^2-isopropyl-6-phenyl-N^4-(thiazol-5-yl)-1,3,5-triazine-2,4-diamine]",
,1000 to 10000,,"CC(C)Nc1nc(Nc2ccncc2C(F)(F)F)nc(-c2ccccc2)n1 [Compound 314, N^2-isopropyl-6-phenyl-N^4-(3-(trifluoromethyl)pyridin-4-yl)-1,3,5-triazine-2,4-diamine]",No Fit
< 100,< 100,,"CC(C)Nc1nc(Nc2ccnc(C3CC3)c2)nc(-c2ccccc2)n1 [Compound 315, N^2-(2-cyclopropylpyridin-4-yl)-N^4-isopropyl-6-phenyl-1,3,5-triazine-2,4-diamine]",
100 to 1000,100 to 1000,,"CC(C)Nc1nc(Nc2ccc(C3CC3)nc2)nc(-c2ccccc2)n1 [Compound 316, N^2-(6-cyclopropylpyridin-3-yl)-N^4-isopropyl-6-phenyl-1,3,5-triazine-2,4-diamine]",
< 100,< 100,,"CS(=O)(=O)c1cccc(Nc2nc(NC3CCC3)nc(-c3ccccc3F)n2)c1 [Compound 317, N^2-cyclobutyl-6-(2-fluorophenyl)-N^4-(3-(methylsulfonyl)phenyl)-1,3,5-triazine-2,4-diamine]",
< 100,< 100,,"Fc1cncc(Nc2nc(NC3CCC3)nc(-c3ccccc3F)n2)c1 [Compound 318, N-Cyclobutyl-6-(2-fluoro-phenyl)-N′-(5-fluoro-pyridin-3-yl)-[1,3,5]triazine-2,4-diamine]",
